Reference: paper PMC10193966, “Structure of WNT inhibitor adenomatosis polyposis coli down-regulated 1 (APCDD1), a cell-surface lipid-binding protein” (Proceedings of the National Academy of Sciences of the …, 2023)

Target: T1, eMBP-APCDD1 (APCDD1 ECD; lipid in ABD2) (Mus musculus, UniProt Q3U128)
T1 construct: extracellular domain residues 47-481, N-terminal engineered MBP fusion, C-terminal 8xHis; secreted from HEK293T (kifunensine); Endo-F1 and carboxypeptidase A/B treated in situ; single-span membrane protein without TM
T1 sequence (Q3U128 47-481): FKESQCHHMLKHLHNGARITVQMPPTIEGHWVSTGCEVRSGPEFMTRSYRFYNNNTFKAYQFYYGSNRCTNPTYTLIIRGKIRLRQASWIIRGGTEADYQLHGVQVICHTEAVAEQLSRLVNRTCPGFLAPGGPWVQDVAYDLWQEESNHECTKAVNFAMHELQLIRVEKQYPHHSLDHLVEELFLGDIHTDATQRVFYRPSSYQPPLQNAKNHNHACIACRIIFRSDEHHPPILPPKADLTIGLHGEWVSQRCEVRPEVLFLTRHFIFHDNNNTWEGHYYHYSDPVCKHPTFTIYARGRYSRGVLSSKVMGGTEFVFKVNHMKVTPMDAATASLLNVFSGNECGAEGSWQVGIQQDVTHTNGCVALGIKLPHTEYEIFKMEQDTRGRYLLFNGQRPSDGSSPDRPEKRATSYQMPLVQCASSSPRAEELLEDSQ
Test: X-ray crystal structure ([…] Å); HPLC/MS of extract from purified APCDD1
Type: binding
Conditions: co-purified lipid from HEK293 expression with 2% serum; ABD2 hydrophobic pocket, chains A and C; MS sample named only purified APCDD1

CCCCCCCCCCCCCCCCCC(=O)O [stearic acid]
X-ray crystal structure (2.3 Å); HPLC/MS of extract from purified APCDD1: This analysis revealed stearic acid, a C18 fatty acid
